Laboratory results: patent US20120010272A1, “RNA Interference Mediated Inhibition of Apoptosis Signal-Regulating Kinase 1 (ASK1) Gene Expression Using Short Interfering Nucleic Acid (siNA)” (Merck Sharp & Dohme Corp., priority 2009, published 2012)
[invAb] = inverted abasic unit; d = 2'-deoxy (DNA); m = 2'-O-methyl; r = 2'-OH (RNA); f = 2'-fluoro

Tests used:
ASK1 mRNA [1] = test: ASK1 mRNA knock-down by siNA in mouse Hepa1-6 cells (RNAiMax transfection, Taqman RT-PCR); format: cell-based; conditions: 10 nM siNA, 24 hrs post-transfection, vs non-targeting control, GAPDH-normalized, mean ± S.D., two experiments
Method: Hepal-6 (murine; ATCC cat #CRL-1830): Cells were cultured at 37° C. in the presence of 5% CO2 and grown in Dulbecco's modified Eagle's medium (DMEM) with 4 mM L-glutamine adjusted to contain 1.5 g/L sodium bicarbonate and 4.5 g/L glucose and supplemented with 10% of fetal bovine serum, 100 μg/mL of streptomycin, and 100 U/mL penicillin.
(§1) Cells were plated in all wells of a tissue-culture treated, 96-well plate at a final count of 5000 cells/well (A549 cell line) and 3,500 cells/well (Hepal-6 cell line) in 100 μL of the appropriate culture media. The cells were cultured for 24 hours after plating at 37° C. in the presence of 5% CO2.
(§2) After 24 hours, complexes containing siNA and RNAiMax were created as follows: A solution of RNAiMax diluted 33-fold in OPTI-MEM was prepared. In parallel, solutions of the siNAs for testing were prepared to a final concentration of 120 nM in OPTI-MEM. After incubation of RNAiMax/OPTI-MEM solution at room temperature for 5 min, an equal volume of the siRNA solution and the RNAiMax solution were added together for each of the siNAs.
(§3) This solution was incubated at room temperature for 20 minutes. After incubation, 20 uL of the solution was added to each of the relevant wells. The final concentration of siNA in each well was 10 nM and the final volume of RNAiMax in each well was 0.3 ul.
(§4) The time of incubation with the RNAiMax-siNA complexes was 24 hours and there was no change in media between transfection and harvesting, unless otherwise indicated.
(§5) RNA was extracted from a 96-well plate using the TaqMan® Gene Expression Cells-to-CT™ Kit (Cat #4399002) with a modified protocol. Briefly, a 60 uL (1 plate) or 110 uL (2 plates) of the Lysis Solution with DNase I was dispensed into each well of the Lysis Buffer Plate (twin.tec full skirt plate). The lysis buffer and stop plates were stored at 4° C. until the cells were washed.
(§6) The plate was spun at 1100 rpm for 5 minutes. The culture medium was aspirated and discarded from the wells of the culture plate. The lysis was performed automatically using a BioMek FX instrument and method. After the Biomek method was completed, the lysis plate was incubated for 2 min. at room temperature. The lysis plate can be stored for 2 hours at 4° C., or at −20° C. or −80° C. for two months.
(§7) Each well of the reverse transcription plate required 10 uL of 2× reverse transcriptase Buffer, 1 uL of 20× reverse transcription enzyme and 2 uL of nuclease-free water. The reverse transcription master mix was prepared by mixing 2× reverse transcription buffer, 20× reverse transcription enzyme mix, and nuclease-free water. 13 uL of the reverse transcription master mix was dispensed into each well of the reverse transcription plate (semi-skirted). A separate reverse transcription plate was prepared for each cell plate. The plate was loaded onto a Biomek NX or Biomek FX Dual-96 and the Biomek method was run. The program is programmed to automatically added 7 uL of lysate from the cell lysis procedure described above into each well of the reverse transcription plate. The plate is sealed and spun on a centrifuge (1000 rpm for 30 seconds) to settle the contents to the bottom of the reverse transcription plate. The plate is placed in a thermocycler at 37° C. for 60 min, 95° C. for 5 min, and 4° C. until the plate is removed from the thermocycler. Upon removal, if not used immediately, the plate was frozen at −20° C.
(§8) A series of probes and primers were used to detect the various mRNA transcripts of the genes of ASK1, ASK2, and GAPDH in human cell lines and ASK1 and GAPDH in mouse cell lines. All Taqman probes and primers for the experiments were supplied as pre-validated sets by ABI (see Table 2).
(§9) The assays were performed on an ABI 7900 instrument, according to the manufacturer's instructions. A TaqMan Gene Expression Master Mix (provided in the Cells-to-CT™, Applied Biosystems, Cat #4399002) was used. […]

ASK1 mRNA [2] = test: ASK1 mRNA knock-down by siNA in human A549 cells (RNAiMax transfection, Taqman RT-PCR); format: cell-based; conditions: 10 nM siNA, 24 hrs post-transfection, vs non-targeting control, GAPDH-normalized, mean ± S.D., two experiments
Method: A549 (human; ATCC cat #CCL-185): Cells were cultured at 37° C. in the presence of 5% CO2 and grown in Ham's F12K medium with 2 mM L-glutamine adjusted to contain 1.5 g/L sodium bicarbonate and supplemented with fetal bovine serum at a final concentration of 10%, 100 μg/mL of streptomycin, and 100 U/mL penicillin.
as §1, §2, §3, §4, §5, §6, §7, §8, §9

Substance | % KD Mouse (ASK1 mRNA [1]) [%] | % KD Human (ASK1 mRNA [2]) [%]
25386-DC: siNA duplex, sense B GAGcAAccAAGucAGAAuu TTB, antisense AAUucuGacuuGGuuGcucUU (SEQ ID NO: 53/54), human ASK1 target site 2461 (sense GAGCAACCAAGUCAGAAUUTT; antisense AAUUCUGACUUGGUUGCUCUU; inverted abasic end caps, TT overhang, chemistry not fully specified) | 53 ± 1 | 80 ± 1
25381-DC: siNA duplex, sense B GcGAGGcccuGcAGAGcuu TTB, antisense AAGcucuGcAGGGccucGcUU (SEQ ID NO: 43/44), human ASK1 target site 690 (sense GCGAGGCCCUGCAGAGCUUTT; antisense AAGCUCUGCAGGGCCUCGCUU; chemistry not fully specified) | 45 ± 2 | 70 ± 2
25375-DC: siNA duplex, sense B GGAuGAAAAuAGAAAccAA TTB, antisense UUGGuuucuAuuuucAuccUU (SEQ ID NO: 31/32), human ASK1 target site 4101 (sense GGAUGAAAAUAGAAACCAATT; antisense UUGGUUUCUAUUUUCAUCCUU; chemistry not fully specified) | 6 ± 13 | 76 ± 6
25396-DC: siNA duplex, sense B cAAGcAAAAAGAAAAAGAc TTB, antisense GUCuuuuucuuuuuGcuuGUU (SEQ ID NO: 73/74), human ASK1 target site 3183 (sense CAAGCAAAAAGAAAAAGACTT; antisense GUCUUUUUCUUUUUGCUUGUU; chemistry not fully specified) | 75 ± 1 | 90 ± 1
25378-DC: siNA duplex, sense B cGGAAGAccAAGAcAAAAu TTB, antisense AUUuuGucuuGGucuuccGUU (SEQ ID NO: 37/38), human ASK1 target site 3537 (sense CGGAAGACCAAGACAAAAUTT; antisense AUUUUGUCUUGGUCUUCCGUU; chemistry not fully specified) | 34 ± 2 | 79 ± 5
25388-DC: siNA duplex, sense B GGuAGAGAcuuuAGAAAAA TTB, antisense UUUuucuAAAGucucuAccUU (SEQ ID NO: 57/58), human ASK1 target site 1360 (sense GGUAGAGACUUUAGAAAAATT; antisense UUUUUCUAAAGUCUCUACCUU; sense: sugars from the 5' end d2 f1 d5 f4 d9, [invAb] at 5' end, 3' end, backbone not given here; antisense: sugars from the 5' end rrrffffmmmmfffffmffmm, backbone not given here) | 32 ± 5 | 89 ± 4
25401-DC: siNA duplex, sense B uccuGGucGAGGccAcAAA TTB, antisense UUUGuGGccucGAccAGGAUU (SEQ ID NO: 83/84), human ASK1 target site 1995 (sense UCCUGGUCGAGGCCACAAATT; antisense UUUGUGGCCUCGACCAGGAUU; sense: DNA at AGT, 2'-fluoro at CU, [invAb] at 5' end, 3' end, backbone not given here; antisense: sugars from the 5' end rrrmfmmffffmmffmmmmmm, backbone not given here) | 21 ± 0 | 10 ± 16
25380-DC: siNA duplex, sense B GAuGGAAAuucuAAAAAuu TTB, antisense AAUuuuuAGAAuuuccAuCUU (SEQ ID NO: 41/42), human ASK1 target site 4508 (sense GAUGGAAAUUCUAAAAAUUTT; antisense AAUUUUUAGAAUUUCCAUCUU; chemistry not fully specified) | −7 ± 11 | 91 ± 0
25383-DC: siNA duplex, sense B cuGcuGAucAAGAAGAcuu TTB, antisense AAGUCuucuuGAucAGcAGUU (SEQ ID NO: 47/48), human ASK1 target site 3918 (sense CUGCUGAUCAAGAAGACUUTT; antisense AAGUCUUCUUGAUCAGCAGUU; chemistry not fully specified) | 1 ± 3 | 68 ± 7
25390-DC: siNA duplex, sense B GGcuGAAGAuuAuAcAcuA TTB, antisense UAGuGuAuAAucuucAGccUU (SEQ ID NO: 61/62), human ASK1 target site 4354 (sense GGCUGAAGAUUAUACACUATT; antisense UAGUGUAUAAUCUUCAGCCUU; chemistry not fully specified) | −18 ± 14 | 93 ± 1
25398-DC: siNA duplex, sense B GuGAcAGcAGcuucAuGAA TTB, antisense UUCAuGAAGcuGcuGucAcUU (SEQ ID NO: 77/78), human ASK1 target site 1038 (sense GUGACAGCAGCUUCAUGAATT; antisense UUCAUGAAGCUGCUGUCACUU; sense: DNA at AGT, 2'-fluoro at CU, [invAb] at 5' end, 3' end, backbone not given here; antisense: sugars from the 5' end rrrmfmmmmffmffmffmfmm, backbone not given here) | 51 ± 2 | 38 ± 6
25382-DC: siNA duplex, sense B ccAGAAcuAAGGccAcAuu TTB, antisense AAUGuGGccuuAGuucuGGUU (SEQ ID NO: 45/46), human ASK1 target site 3875 (sense CCAGAACUAAGGCCACAUUTT; antisense AAUGUGGCCUUAGUUCUGGUU; chemistry not fully specified) | −26 ± 10 | 20 ± 4
25394-DC: siNA duplex, sense B uucGGAAucAuAAcAucAA TTB, antisense UUGAuGuuAuGAuuccGAAUU (SEQ ID NO: 69/70), human ASK1 target site 3786 (sense UUCGGAAUCAUAACAUCAATT; antisense UUGAUGUUAUGAUUCCGAAUU; chemistry not fully specified) | 60 ± 6 | 76 ± 8
25397-DC: siNA duplex, sense B AGccAGuAcuuccGGGAAu TTB, antisense AUUcccGGAAGuAcuGGcuUU (SEQ ID NO: 75/76), human ASK1 target site 1166 (sense AGCCAGUACUUCCGGGAAUTT; antisense AUUCCCGGAAGUACUGGCUUU; chemistry not fully specified) | 78 ± 7 | 60 ± 0
25392-DC: siNA duplex, sense B cAcuGAccGAAAAAucAuA TTB, antisense UAUGAuuuuucGGucAGuGUU (SEQ ID NO: 65/66), human ASK1 target site 3661 (sense CACUGACCGAAAAAUCAUATT; antisense UAUGAUUUUUCGGUCAGUGUU; chemistry not fully specified) | 63 ± 1 | 67 ± 6
